Results reported in ChEMBL document CHEMBL1144870 (J Med Chem, 2003).
pKi: −log10 of the molar value.

Target: T1, Hypoxanthine-guanine phosphoribosyltransferase (Homo sapiens, UniProt P00492)
T1 sequence (P00492 whole entry): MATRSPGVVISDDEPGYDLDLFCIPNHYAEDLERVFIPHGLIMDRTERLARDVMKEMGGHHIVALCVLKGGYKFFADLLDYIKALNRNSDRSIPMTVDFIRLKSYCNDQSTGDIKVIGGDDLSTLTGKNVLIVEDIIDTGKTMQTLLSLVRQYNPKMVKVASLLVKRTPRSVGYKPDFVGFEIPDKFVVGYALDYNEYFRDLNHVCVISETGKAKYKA
Assay: Kinetic inhibition constant of compound with human Hypoxanthine Phosphoribosyltransferase (HPRT)

In the case of `O=C(Nc1cc2c3ccccc3ccc2c2ccccc12)C(Cl)Cl`, the pKi was 4.80.
